The text below walks through data of patent US8759513B2, “Polymorphic form of rifaximin and process for its preparation” (Sequent Scientific Limited, priority 2011, dated 2014).

Molecules are shown by their SMILES.

The series in a line: Stability of amorphous rifaximin on storage, followed by PXRD spectroscopy. The series is classed as physicochemical. The following applies: as indicated by the PXRD spectroscopy.

`CO[C@H]1/C=C/O[C@@]2(C)Oc3c(C)c(O)c4c(O)c(c5c(nc6cc(C)ccn65)c4c3C2=O)NC(=O)/C(C)=C\C=C\[C@H](C)[C@H](O)[C@@H](C)[C@@H](O)[C@@H](C)[C@H](OC(C)=O)[C@@H]1C` [amorphous rifaximin, (2S,16Z,18E,20S,21S,22R,23R,24R,25S,26S,27S,28E)-5,6,21,23,25-pentahydroxy-27-methoxy-2,4,11,16,20,22,24,26-octamethyl-2,7-(epoxypentadeca-[1,11,13]trienimino)benzofuro[4,5-e]pyrido[1,2-α]-benzimidazole-1,15(2H)-dione, 25-acetate]: under “ambient humidity”, the “effect of external parameters such as ambient humidity” value is on record as “unaffected”. Where the note is “on storage”, the “chemical and polymorphic stability on storage” value is “very stable chemically and polymorphically on storage”.
